Results on two sequences are retold here after patent US8901071B2, “Compounds and their use” (Novabiotics Limited, priority 2010, dated 2014).

No end group written: not given here.

The subject of series [1] is P. aeruginosa bacterial biofilms. Kind of series: bacterial biofilm assay, Example 2 (optical density at 625 nm; FIGS. 3-4). The class given is cell-based. Particulars: biofilm grown 18 hours, 24 hours incubation, 0 to 1 mg/ml, combinations in equal concentration. The procedure:
(§1) P. aeruginosa bacterial biofilms and S. aureus bacterial biofilms were grown in Mueller-Hinton agar in separate 96-well microtitre plates for 18 hours at 37 degrees Celsius. The planktonic cells and medium were then removed and the bacterial biofilms were washed three times with phosphate buffer solution at a pH of around 7. Two-fold dilutions of three different antimicrobial agents in Mueller Hinton broth were then added to the bacterial biofilms. The microtitre plates were incubated at 37 degrees Celsius for 24 hours. The medium was then transferred to a fresh microtitre plate and the optical density of the bacterial biofilm was measured at 625 nm on a microtitre plate reader (BioTek Powerwave, X S, Winooski, USA.
(§2) The antimicrobial agents tested were NP432 alone, a combination of NP432 and NM001 in equal concentration, a combination of NP432 and NP 108 in equal concentration, NP445 alone, a combination of NP445 and NM001 in equal concentration, a combination of NP445 and NP 108 in equal concentration. The antimicrobial agents were tested at concentrations of 0 to 1 mg/ml against P. aeruginosa bacterial biofilms and S. aureus bacterial biofilms.

The test system of series [2] is S. aureus bacterial biofilms. Kind of series: bacterial biofilm assay, Example 2 (optical density at 625 nm; FIGS. 5-6). In kind it is cell-based. As to conditions: biofilm grown 18 hours, 24 hours incubation, 0 to 1 mg/ml, combinations in equal concentration. Here is the method:
as §1, §2

The next series relates to mice. Briefly: lethality of peptide in mice. In kind it is in vivo. As to conditions: dose of around 5 mg/kg.

Regarding “KKFPWRLRLRYGRR (sythetic peptide) [NP445]”, the “antimicrobial effect against P. aeruginosa bacterial biofilms” value in series [1] is listed as “antimicrobial effect”. Further, in series [2], the “antimicrobial effect against S. aureus bacterial biofilm” value is listed as “antimicrobial effect”.
For RRRFRFFFRFRRR [NP432, RRRFRFFFRFRRR], the lethality to mice entry with mice is on record as “non-lethal”.
